Experimental data: patent US9078444B2, “Isothiazoline derivatives as insecticidal compounds” (Syngenta Participations AG, priority 2011, dated 2015)

Experiments:
Assay type in all cases: in vivo
Spodoptera littoralis = Spodoptera littoralis (Egyptian cotton leafworm) cotton leaf disc test; conditions: foliar, 72 h, 200 ppm sprayed on cotton leaf discs, mortality, feeding behavior, growth regulation 3 days after treatment
Procedure: Spodoptera littoralis (Egyptian Cotton Leafworm): Cotton leaf discs were placed on agar in a 24-well microtiter plate and sprayed with test solutions at an application rate of 200 ppm. After drying, the leaf discs were infested with […]. The samples were checked for mortality, feeding behavior, and growth regulation 3 days after treatment (DAT).

Heliothis virescens = Heliothis virescens (tobacco budworm) egg test on artificial diet; conditions: 96 h, 200 ppm (concentration in well 18 ppm), eggs on artificial diet, egg mortality, larval mortality, growth regulation after 4 days
Procedure: Heliothis virescens (Tobacco Budworm): Eggs (0-24 h old) were placed in 24-well microtiter plate on artificial diet and treated with test solutions at an application rate of 200 ppm (concentration in well 18 ppm) by pipetting. After an incubation period of 4 days, samples were checked for egg mortality, larval mortality, and growth regulation.

Plutella xylostella = Plutella xylostella (diamond back moth) artificial diet test; conditions: 144 h, 200 ppm (concentration in well 18 ppm), L2 larvae, larval mortality and growth regulation after 6 days
Procedure: (§1) Plutella xylostella (Diamond Back Moth): 24-well microtiter plate (MTP) with artificial diet was treated with test solutions at an application rate of 200 ppm (concentration in well 18 ppm) by pipetting. After drying, the MTPs were infested with L2 larvae (7-12 per well). After an incubation period of 6 days, samples were checked for larval mortality and growth regulation.

Diabrotica balteata = Diabrotica balteata (corn root worm) artificial diet test; conditions: 120 h, 200 ppm (concentration in well 18 ppm), L2 larvae, larval mortality and growth regulation after 5 days
Procedure: as §1, with “Diabrotica balteata (Corn Root Worm): A” for “Plutella xylostella (Diamond Back Moth):”, “(6-10” for “(7-12”, “5” for “6”

Thrips tabaci = Thrips tabaci (onion thrips) sunflower leaf disc test; conditions: foliar, 168 h, 200 ppm sprayed on sunflower leaf discs, mixed ages, mortality after 7 days
Procedure: Thrips tabaci (Onion Thrips): Sunflower leaf discs were placed on agar in a 24-well microtiter plate and sprayed with test solutions at an application rate of 200 ppm. After drying, the leaf discs were infested with a thrips population of mixed ages. After an incubation period of 7 days, samples were checked for mortality.

Tetranychus urticae = Tetranychus urticae (two-spotted spider mite) bean leaf disc test; conditions: foliar, 192 h, 200 ppm sprayed on bean leaf discs, mixed ages, egg, larval and adult mortality 8 days later
Description: Tetranychus urticae (Two-Spotted Spider Mite): Bean leaf discs on agar in 24-well microtiter plates were sprayed with test solutions at an application rate of 200 ppm. After drying, the leaf discs are infested with mite populations of mixed ages. 8 days later, discs are checked for egg mortality, larval mortality, and adult mortality.

Measured: pest or weed control at 200 ppm

Cc1cc(C2=NSC(c3cc(Cl)cc(Cl)c3)(C(F)(F)F)C2)ccc1C(=O)NCC(F)(F)F (stereo not shown) [Compound A03]
≥ 80%: Spodoptera littoralis | Heliothis virescens | Plutella xylostella | Diabrotica balteata | Thrips tabaci | Tetranychus urticae

CCNC(=O)c1ccc(C2=NSC(c3cc(Cl)cc(Cl)c3)(C(F)(F)F)C2)cc1C (stereo not shown) [Compound A04]
≥ 80%: Spodoptera littoralis | Heliothis virescens | Plutella xylostella | Diabrotica balteata | Thrips tabaci | Tetranychus urticae

CCCCNC(=O)c1ccc(C2=NSC(c3cc(Cl)cc(Cl)c3)(C(F)(F)F)C2)cc1C (stereo not shown) [Compound A05]
≥ 80%: Spodoptera littoralis | Heliothis virescens | Plutella xylostella | Diabrotica balteata | Thrips tabaci | Tetranychus urticae

COCC(C)NC(=O)c1ccc(C2=NSC(c3cc(Cl)cc(Cl)c3)(C(F)(F)F)C2)cc1C (stereo not shown) [Compound A06]
≥ 80%: Spodoptera littoralis | Heliothis virescens | Plutella xylostella | Diabrotica balteata | Thrips tabaci | Tetranychus urticae

Cc1cc(C2=NSC(c3cc(Cl)cc(Cl)c3)(C(F)(F)F)C2)ccc1C(=O)NCCC(F)(F)F (stereo not shown) [Compound A07]
≥ 80%: Spodoptera littoralis | Heliothis virescens | Plutella xylostella | Diabrotica balteata | Thrips tabaci | Tetranychus urticae

CCC(C)NC(=O)c1ccc(C2=NSC(c3cc(Cl)cc(Cl)c3)(C(F)(F)F)C2)cc1C (stereo not shown) [Compound A08]
≥ 80%: Spodoptera littoralis | Heliothis virescens | Plutella xylostella | Diabrotica balteata | Thrips tabaci | Tetranychus urticae

Cc1cc(C2=NSC(c3cc(Cl)cc(Cl)c3)(C(F)(F)F)C2)ccc1C(=O)NCC1CCCO1 (stereo not shown) [Compound A09]
≥ 80%: Spodoptera littoralis | Heliothis virescens | Plutella xylostella | Diabrotica balteata | Thrips tabaci | Tetranychus urticae

Cc1cc(C2=NSC(c3cc(Cl)cc(Cl)c3)(C(F)(F)F)C2)ccc1C(=O)NCc1ccccc1 (stereo not shown) [Compound A10]
≥ 80%: Spodoptera littoralis | Heliothis virescens | Plutella xylostella | Diabrotica balteata | Thrips tabaci | Tetranychus urticae

Cc1cc(C2=NSC(c3cc(Cl)cc(Cl)c3)(C(F)(F)F)C2)ccc1C(=O)NCc1ccccc1F (stereo not shown) [Compound A11]
≥ 80%: Spodoptera littoralis | Heliothis virescens | Plutella xylostella | Diabrotica balteata | Thrips tabaci | Tetranychus urticae

COc1ccc(CNC(=O)c2ccc(C3=NSC(c4cc(Cl)cc(Cl)c4)(C(F)(F)F)C3)cc2C)cc1 (stereo not shown) [Compound A13]
≥ 80%: Spodoptera littoralis | Heliothis virescens | Plutella xylostella | Diabrotica balteata | Thrips tabaci | Tetranychus urticae

Cc1cc(C2=NSC(c3cc(Cl)cc(Cl)c3)(C(F)(F)F)C2)ccc1C(=O)NCc1ccc(Cl)nc1 (stereo not shown) [Compound A14]
≥ 80%: Spodoptera littoralis | Heliothis virescens | Plutella xylostella | Diabrotica balteata | Thrips tabaci | Tetranychus urticae

Cc1cc(C2=NSC(c3cc(Cl)cc(Cl)c3)(C(F)(F)F)C2)ccc1C(=O)Nc1cccc(F)c1 (stereo not shown) [Compound A15]
≥ 80%: Spodoptera littoralis | Heliothis virescens | Plutella xylostella | Diabrotica balteata | Thrips tabaci | Tetranychus urticae

Cc1cc(NC(=O)c2ccc(C3=NSC(c4cc(Cl)cc(Cl)c4)(C(F)(F)F)C3)cc2C)n(C)n1 (stereo not shown) [Compound A17]
≥ 80%: Spodoptera littoralis | Heliothis virescens | Plutella xylostella | Diabrotica balteata | Thrips tabaci | Tetranychus urticae

Cc1csc(NC(=O)c2ccc(C3=NSC(c4cc(Cl)cc(Cl)c4)(C(F)(F)F)C3)cc2C)n1 (stereo not shown) [Compound A18]
≥ 80%: Spodoptera littoralis | Heliothis virescens | Plutella xylostella | Diabrotica balteata | Thrips tabaci | Tetranychus urticae

Cc1cc(C2=NSC(c3cc(Cl)cc(Cl)c3)(C(F)(F)F)C2)ccc1C(=O)NC1(C)CSC1 (stereo not shown) [Compound A19]
≥ 80%: Spodoptera littoralis | Heliothis virescens | Plutella xylostella | Diabrotica balteata | Thrips tabaci | Tetranychus urticae

CSCC(C)(C)NC(=O)c1ccc(C2=NSC(c3cc(Cl)cc(Cl)c3)(C(F)(F)F)C2)cc1C (stereo not shown) [Compound A20]
≥ 80%: Spodoptera littoralis | Heliothis virescens | Plutella xylostella | Diabrotica balteata | Tetranychus urticae

Cc1cc(C2=NSC(c3cc(Cl)cc(Cl)c3)(C(F)(F)F)C2)ccc1C(=O)NC1C[S+]([O-])C1 (stereo not shown) [Compound A21]
≥ 80%: Spodoptera littoralis | Heliothis virescens | Plutella xylostella | Diabrotica balteata | Thrips tabaci | Tetranychus urticae

Cc1cc(C2=NSC(c3cc(Cl)cc(Cl)c3)(C(F)(F)F)C2)ccc1C(=O)NC1CCSC1=O (stereo not shown) [Compound A37]
≥ 80%: Spodoptera littoralis | Heliothis virescens | Plutella xylostella | Diabrotica balteata | Tetranychus urticae

Cc1cc(C2=NSC(c3cc(Cl)cc(Cl)c3)(C(F)(F)F)C2)ccc1C(=O)Nc1cc[n+]([O-])cc1 (stereo not shown) [Compound A41]
≥ 80%: Spodoptera littoralis | Heliothis virescens | Plutella xylostella

Cc1cc(C2=NSC(c3cc(Cl)cc(Cl)c3)(C(F)(F)F)C2)ccc1C(=O)NC1=NCCS1 (stereo not shown) [Compound A44]
≥ 80%: Spodoptera littoralis | Heliothis virescens | Plutella xylostella | Diabrotica balteata

Cc1cc(C)nc(NC(=O)c2ccc(C3=NSC(c4cc(Cl)cc(Cl)c4)(C(F)(F)F)C3)cc2C)n1 (stereo not shown) [Compound A47]
≥ 80%: Spodoptera littoralis

CCN(CC)C(=O)c1cccc(NC(=O)c2ccc(C3=NSC(c4cc(Cl)cc(Cl)c4)(C(F)(F)F)C3)cc2C)n1 (stereo not shown) [Compound A49]
≥ 80%: Spodoptera littoralis | Heliothis virescens | Plutella xylostella | Diabrotica balteata | Tetranychus urticae

Cc1cc(C2=NSC(c3cc(Cl)cc(Cl)c3)(C(F)(F)F)C2)ccc1C(=O)Nc1ccccn1 (stereo not shown) [Compound A56]
≥ 80%: Spodoptera littoralis | Heliothis virescens | Plutella xylostella | Diabrotica balteata | Thrips tabaci

Cc1cc(C2=NSC(c3cc(Cl)cc(Cl)c3)(C(F)(F)F)C2)ccc1C(=O)NCc1ccc(C(F)(F)F)cc1 (stereo not shown) [Compound A57]
≥ 80%: Spodoptera littoralis | Heliothis virescens | Plutella xylostella | Diabrotica balteata | Tetranychus urticae

Cc1cc(C2=NSC(c3cc(Cl)cc(Cl)c3)(C(F)(F)F)C2)ccc1C(=O)Nc1ccc(C(F)(F)F)cc1 (stereo not shown) [Compound A58]
≥ 80%: Spodoptera littoralis | Heliothis virescens | Plutella xylostella | Diabrotica balteata | Thrips tabaci

Cc1ccc(NC(=O)c2ccc(C3=NSC(c4cc(Cl)cc(Cl)c4)(C(F)(F)F)C3)cc2C)cc1 (stereo not shown) [Compound A64]
≥ 80%: Spodoptera littoralis | Heliothis virescens | Plutella xylostella | Diabrotica balteata | Thrips tabaci
